Measured values published in publication PMC9851200, “Multiparameter phenotypic screening for endogenous TFEB and TFE3 translocation identifies novel chemical series modulating lysosome function” (Autophagy, 2022).

Legend:
[1] = molecular target: T1, TGFBR1 (Homo sapiens, UniProt P36897); assay: TGFBR1 binding KD (Table S3)
T1 sequence (P36897 34-503): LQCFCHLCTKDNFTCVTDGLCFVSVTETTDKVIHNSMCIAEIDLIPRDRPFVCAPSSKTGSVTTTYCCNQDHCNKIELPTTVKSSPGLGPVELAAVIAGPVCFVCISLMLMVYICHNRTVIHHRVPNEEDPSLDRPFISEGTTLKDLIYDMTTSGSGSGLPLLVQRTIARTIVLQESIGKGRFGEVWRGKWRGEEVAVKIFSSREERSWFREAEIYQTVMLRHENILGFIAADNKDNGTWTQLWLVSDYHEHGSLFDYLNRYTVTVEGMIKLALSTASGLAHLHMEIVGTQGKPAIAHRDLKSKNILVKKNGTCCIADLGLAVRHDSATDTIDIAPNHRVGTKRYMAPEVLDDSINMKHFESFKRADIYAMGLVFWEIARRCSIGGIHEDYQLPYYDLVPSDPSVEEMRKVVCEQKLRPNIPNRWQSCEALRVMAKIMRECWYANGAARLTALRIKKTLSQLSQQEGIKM
Source text: Supplement KAUP_A_2095834_SM5251.zip/Supplementary Tables R7.xlsx, sheet "Table S3 - Analogues"

[2] = molecular target: T2, PRKD3 (Homo sapiens, UniProt O94806); assay: KiNativ in-cell kinase binding, PRKD3; set-up: endogenous in cells; host or cells: SH-SY5Y; settings: for inhibition at 2 µM: SH-SY5Y cells
T2 sequence (O94806 1-890): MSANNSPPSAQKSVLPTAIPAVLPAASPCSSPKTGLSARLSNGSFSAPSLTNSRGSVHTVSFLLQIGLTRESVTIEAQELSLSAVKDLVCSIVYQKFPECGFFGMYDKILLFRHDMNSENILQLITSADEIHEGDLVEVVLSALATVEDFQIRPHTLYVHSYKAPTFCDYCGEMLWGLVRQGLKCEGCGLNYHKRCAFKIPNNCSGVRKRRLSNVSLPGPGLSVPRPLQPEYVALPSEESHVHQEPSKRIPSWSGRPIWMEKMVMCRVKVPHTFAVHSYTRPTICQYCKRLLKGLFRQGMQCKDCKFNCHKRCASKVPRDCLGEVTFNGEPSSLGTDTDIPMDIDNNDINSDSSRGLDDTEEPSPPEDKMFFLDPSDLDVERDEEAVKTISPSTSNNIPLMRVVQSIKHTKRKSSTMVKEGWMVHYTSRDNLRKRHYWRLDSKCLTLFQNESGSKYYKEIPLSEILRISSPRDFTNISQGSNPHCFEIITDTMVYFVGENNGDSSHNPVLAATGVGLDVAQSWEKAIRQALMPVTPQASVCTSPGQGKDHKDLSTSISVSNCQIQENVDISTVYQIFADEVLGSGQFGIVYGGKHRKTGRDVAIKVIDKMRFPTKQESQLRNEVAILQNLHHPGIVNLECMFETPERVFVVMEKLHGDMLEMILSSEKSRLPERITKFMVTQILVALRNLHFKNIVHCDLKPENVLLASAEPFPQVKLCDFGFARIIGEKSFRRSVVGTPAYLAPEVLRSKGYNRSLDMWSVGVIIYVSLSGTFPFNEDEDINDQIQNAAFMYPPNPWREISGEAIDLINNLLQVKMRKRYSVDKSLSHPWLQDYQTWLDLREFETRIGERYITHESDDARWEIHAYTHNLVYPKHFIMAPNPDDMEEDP
Source text: As KINOMEscan is an in vitro assay, and as different cell types have variable kinase expression profiles we sought to determine the kinase binding profile in our SH-SY5Y TFEB-relocalization cell model. […] Bound kinases were pulled down and analyzed by mass spectrometry to determine the in situ kinase binding profile for each compound.

[3] = molecular target: T3, PRKD2 (Homo sapiens, UniProt Q9BZL6); assay: KINOMEscan PRKD2; assay type: binding; settings: NEW KINOMEscan
T3 sequence (Q9BZL6 1-878): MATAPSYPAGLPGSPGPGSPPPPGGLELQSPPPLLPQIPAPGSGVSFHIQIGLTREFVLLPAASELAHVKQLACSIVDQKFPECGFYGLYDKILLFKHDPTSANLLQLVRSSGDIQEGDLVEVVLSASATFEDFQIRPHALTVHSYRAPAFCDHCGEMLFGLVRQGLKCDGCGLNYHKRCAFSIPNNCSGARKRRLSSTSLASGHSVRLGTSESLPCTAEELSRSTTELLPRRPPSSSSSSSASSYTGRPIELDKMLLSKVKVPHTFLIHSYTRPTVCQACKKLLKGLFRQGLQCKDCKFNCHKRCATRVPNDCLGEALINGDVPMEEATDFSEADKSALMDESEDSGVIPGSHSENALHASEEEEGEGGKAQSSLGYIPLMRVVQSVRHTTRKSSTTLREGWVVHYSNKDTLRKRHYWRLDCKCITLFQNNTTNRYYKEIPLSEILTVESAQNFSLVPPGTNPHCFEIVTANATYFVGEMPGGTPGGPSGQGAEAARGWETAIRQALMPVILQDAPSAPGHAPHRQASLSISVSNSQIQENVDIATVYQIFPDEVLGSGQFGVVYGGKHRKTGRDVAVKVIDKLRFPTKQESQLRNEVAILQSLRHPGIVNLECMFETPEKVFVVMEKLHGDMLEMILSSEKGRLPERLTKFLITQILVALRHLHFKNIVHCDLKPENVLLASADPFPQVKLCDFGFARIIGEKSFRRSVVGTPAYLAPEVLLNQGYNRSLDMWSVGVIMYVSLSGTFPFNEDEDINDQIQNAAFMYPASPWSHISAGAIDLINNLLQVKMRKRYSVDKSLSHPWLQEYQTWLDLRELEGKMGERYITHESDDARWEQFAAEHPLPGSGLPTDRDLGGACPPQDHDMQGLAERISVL

[4] = molecular target: CIT (Homo sapiens, UniProt O14578); assay: KINOMEscan CIT; assay type: binding; settings: NEW KINOMEscan
[5] = molecular target: CSNK1E (Homo sapiens, UniProt P49674); assay: KINOMEscan CSNK1E; assay type: binding; settings: NEW KINOMEscan
[6] = molecular target: T4, JAK1(JH2) (Homo sapiens, UniProt P23458); assay: KINOMEscan JAK1(JH2); assay type: binding; settings: NEW KINOMEscan
T4 construct: JAK1(JH2)

[7] = molecular target: PIKFYVE (Homo sapiens, UniProt Q9Y2I7); assay: KINOMEscan PIKFYVE; assay type: binding; settings: kinase PIKFYVE; NEW KINOMEscan
[8] = molecular target: BMPR1B (Homo sapiens, UniProt O00238); assay: KINOMEscan BMPR1B; assay type: binding; settings: NEW KINOMEscan
[9] = molecular target: PKNB(M.tuberculosis) (Mycobacterium tuberculosis, UniProt P9WI81); assay type: binding
PKNB(M.tuberculosis), sequence (P9WI81 whole entry, looked up): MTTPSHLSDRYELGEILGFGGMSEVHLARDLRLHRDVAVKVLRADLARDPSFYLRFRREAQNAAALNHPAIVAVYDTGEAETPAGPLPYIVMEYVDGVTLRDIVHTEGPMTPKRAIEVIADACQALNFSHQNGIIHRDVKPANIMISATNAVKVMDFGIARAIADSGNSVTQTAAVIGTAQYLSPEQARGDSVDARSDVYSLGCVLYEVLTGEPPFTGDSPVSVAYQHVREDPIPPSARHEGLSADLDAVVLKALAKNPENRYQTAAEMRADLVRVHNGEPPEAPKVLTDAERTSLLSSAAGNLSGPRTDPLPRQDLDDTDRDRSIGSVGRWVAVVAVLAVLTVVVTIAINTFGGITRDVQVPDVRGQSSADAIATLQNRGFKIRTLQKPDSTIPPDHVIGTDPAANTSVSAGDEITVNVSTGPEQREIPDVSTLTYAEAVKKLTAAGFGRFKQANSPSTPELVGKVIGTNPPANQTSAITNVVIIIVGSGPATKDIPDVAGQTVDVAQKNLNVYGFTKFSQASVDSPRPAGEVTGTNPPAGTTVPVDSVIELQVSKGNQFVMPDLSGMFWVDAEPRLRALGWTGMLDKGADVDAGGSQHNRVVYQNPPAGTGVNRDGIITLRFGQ

PIKFYVE, sequence (Q9Y2I7 whole entry): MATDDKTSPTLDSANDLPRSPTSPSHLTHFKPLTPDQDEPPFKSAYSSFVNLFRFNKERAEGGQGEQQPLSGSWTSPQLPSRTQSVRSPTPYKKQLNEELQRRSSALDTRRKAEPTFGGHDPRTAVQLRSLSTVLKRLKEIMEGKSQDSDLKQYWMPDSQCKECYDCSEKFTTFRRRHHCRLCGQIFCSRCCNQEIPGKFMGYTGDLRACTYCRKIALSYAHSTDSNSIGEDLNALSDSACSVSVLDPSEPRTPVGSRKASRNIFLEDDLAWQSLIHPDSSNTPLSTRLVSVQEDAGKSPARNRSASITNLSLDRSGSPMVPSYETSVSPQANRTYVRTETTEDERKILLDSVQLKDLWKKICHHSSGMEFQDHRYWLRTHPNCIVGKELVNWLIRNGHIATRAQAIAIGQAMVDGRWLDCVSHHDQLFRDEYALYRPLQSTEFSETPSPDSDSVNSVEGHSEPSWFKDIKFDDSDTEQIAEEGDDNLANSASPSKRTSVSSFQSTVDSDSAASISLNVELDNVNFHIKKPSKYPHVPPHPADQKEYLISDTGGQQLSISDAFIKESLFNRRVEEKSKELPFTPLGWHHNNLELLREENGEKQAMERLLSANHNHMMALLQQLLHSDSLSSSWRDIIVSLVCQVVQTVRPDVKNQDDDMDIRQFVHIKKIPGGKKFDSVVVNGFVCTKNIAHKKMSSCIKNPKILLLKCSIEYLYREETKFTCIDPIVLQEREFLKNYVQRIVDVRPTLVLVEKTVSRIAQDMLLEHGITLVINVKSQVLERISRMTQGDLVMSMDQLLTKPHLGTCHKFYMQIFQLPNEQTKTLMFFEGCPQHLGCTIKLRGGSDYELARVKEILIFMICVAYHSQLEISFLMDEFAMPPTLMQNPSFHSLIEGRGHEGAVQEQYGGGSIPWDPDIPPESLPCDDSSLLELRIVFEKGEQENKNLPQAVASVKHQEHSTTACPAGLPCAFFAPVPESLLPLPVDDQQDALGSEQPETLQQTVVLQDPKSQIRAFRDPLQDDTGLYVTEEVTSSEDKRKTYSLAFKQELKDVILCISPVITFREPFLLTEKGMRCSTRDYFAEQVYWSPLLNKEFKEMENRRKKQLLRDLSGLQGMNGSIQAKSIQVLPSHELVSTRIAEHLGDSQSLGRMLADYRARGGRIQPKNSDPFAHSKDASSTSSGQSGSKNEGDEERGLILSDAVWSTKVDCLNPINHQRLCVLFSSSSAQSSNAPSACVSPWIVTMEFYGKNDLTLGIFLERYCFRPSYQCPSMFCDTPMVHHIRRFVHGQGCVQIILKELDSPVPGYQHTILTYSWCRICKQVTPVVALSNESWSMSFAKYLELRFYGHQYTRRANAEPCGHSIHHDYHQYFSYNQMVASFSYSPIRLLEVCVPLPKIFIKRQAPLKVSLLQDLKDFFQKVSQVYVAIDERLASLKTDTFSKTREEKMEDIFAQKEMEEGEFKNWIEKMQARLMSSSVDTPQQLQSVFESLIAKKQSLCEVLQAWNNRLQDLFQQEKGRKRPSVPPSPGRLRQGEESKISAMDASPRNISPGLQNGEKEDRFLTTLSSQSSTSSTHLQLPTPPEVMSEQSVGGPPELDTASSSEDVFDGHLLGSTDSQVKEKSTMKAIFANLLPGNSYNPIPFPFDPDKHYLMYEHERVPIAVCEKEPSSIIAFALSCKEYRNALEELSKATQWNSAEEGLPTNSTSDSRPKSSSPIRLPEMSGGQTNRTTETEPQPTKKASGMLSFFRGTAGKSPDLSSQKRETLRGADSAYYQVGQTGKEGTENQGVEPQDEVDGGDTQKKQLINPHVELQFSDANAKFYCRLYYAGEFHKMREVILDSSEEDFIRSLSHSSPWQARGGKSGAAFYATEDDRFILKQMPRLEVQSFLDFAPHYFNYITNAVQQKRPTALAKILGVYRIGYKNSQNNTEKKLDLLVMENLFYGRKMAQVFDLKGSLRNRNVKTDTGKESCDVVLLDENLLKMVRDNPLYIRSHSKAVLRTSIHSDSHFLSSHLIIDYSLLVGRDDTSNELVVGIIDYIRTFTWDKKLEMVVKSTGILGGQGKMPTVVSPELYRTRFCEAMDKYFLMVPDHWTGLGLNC
T4 sequence (P23458 583-855 limits assumed): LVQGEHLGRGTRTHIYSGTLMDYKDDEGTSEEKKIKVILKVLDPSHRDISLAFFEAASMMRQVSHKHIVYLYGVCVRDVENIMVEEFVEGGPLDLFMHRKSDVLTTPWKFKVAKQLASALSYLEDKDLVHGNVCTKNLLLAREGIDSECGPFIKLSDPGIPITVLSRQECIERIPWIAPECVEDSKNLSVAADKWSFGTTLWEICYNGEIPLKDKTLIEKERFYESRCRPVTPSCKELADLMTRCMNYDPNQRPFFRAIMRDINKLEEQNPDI
CIT, sequence (O14578 whole entry): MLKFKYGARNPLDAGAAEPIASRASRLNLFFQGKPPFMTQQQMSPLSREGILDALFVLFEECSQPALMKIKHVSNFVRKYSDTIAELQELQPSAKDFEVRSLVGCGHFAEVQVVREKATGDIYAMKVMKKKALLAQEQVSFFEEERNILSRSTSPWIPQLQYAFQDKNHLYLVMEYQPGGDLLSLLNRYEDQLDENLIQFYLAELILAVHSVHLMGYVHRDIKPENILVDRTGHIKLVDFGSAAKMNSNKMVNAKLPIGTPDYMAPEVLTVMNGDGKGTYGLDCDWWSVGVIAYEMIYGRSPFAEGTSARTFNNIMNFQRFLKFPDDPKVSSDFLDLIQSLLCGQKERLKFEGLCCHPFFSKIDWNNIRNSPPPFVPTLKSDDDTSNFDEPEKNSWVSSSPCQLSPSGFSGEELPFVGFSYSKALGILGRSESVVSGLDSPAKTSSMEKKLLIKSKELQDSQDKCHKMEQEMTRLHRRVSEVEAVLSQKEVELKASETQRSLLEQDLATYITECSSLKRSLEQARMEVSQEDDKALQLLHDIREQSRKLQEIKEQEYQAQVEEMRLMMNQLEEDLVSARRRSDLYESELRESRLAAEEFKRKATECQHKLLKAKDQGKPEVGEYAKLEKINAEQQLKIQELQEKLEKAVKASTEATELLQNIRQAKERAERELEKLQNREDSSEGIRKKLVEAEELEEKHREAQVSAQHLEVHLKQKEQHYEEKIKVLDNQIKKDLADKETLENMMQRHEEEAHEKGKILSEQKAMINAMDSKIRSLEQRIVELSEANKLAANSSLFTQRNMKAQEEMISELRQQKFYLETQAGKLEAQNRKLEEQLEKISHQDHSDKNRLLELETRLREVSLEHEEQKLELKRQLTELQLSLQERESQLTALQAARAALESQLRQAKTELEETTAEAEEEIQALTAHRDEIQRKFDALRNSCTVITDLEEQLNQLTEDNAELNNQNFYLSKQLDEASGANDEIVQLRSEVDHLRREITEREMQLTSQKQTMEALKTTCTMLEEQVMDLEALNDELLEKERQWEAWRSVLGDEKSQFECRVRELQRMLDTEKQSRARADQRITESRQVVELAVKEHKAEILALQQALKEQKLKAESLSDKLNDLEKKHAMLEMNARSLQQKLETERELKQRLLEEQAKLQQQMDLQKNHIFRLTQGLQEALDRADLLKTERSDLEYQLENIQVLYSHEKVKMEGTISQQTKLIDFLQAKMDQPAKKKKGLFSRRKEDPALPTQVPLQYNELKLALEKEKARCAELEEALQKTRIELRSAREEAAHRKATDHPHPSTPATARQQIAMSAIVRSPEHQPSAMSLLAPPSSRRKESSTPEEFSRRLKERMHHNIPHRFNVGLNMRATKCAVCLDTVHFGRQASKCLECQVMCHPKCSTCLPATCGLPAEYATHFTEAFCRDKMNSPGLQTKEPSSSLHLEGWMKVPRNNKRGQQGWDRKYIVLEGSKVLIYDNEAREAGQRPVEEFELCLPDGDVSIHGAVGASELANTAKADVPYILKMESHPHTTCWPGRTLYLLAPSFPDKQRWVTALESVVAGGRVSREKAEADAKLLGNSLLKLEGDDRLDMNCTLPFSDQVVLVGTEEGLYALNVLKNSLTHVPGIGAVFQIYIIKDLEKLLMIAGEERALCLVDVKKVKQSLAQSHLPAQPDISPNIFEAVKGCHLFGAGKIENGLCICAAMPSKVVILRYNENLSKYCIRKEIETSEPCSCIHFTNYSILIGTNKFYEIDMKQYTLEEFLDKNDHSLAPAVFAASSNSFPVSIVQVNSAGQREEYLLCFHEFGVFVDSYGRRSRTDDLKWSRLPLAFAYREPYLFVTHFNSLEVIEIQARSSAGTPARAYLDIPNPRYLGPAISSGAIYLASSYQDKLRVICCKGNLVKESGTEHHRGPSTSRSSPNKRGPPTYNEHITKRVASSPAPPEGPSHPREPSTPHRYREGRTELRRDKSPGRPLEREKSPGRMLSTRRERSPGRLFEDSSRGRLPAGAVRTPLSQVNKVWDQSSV

Compound	Kd [1]	inhibition at 2 µM ([2]; Labeling Site Lys1, DVAIKVIDK)	inhibition at 2 µM ([2]; Labeling Site Lys2, NIVHCDLKPENVLLASAEPFPQVK)	KiNativ binding of PRKD3 (in words) ([2]; SH-SY5Y cells treated 2 h)	KINOMEscan PRKD2 [3]	KINOMEscan CIT [4]	KINOMEscan CSNK1E [5]	KINOMEscan JAK1(JH2domain-pseudokinase) [6]	KINOMEscan PIKFYVE [7]	KINOMEscan BMPR1B [8]	KINOMEscan PKNB(M.tuberculosis) [9]
Cc1cccc(-c2nc(Nc3ccc4ncsc4c3)c3ccccc3n2)n1 [NK140]	5000 nM	71.5%	78.5%	bound							
Cc1cccc(-c2nc(Nc3ccc4nn(C)cc4c3)c3ccccc3n2)n1 [NK167]					39	3	8	36	0	0	12
Cc1cccc(-c2nc(Nc3ccncc3)c3ccccc3n2)n1 [NK215]	9.5 nM										
Cc1cccc(-c2nc(N(C)c3ccc4ncsc4c3)c3ccccc3n2)n1 [NK-161]					63	0	7	41	16	8	9
